US20240252488A1 (KOREA RESEARCH INSTITUTE OF CHEMICAL TECHNOLOGY, priority 2020, published 2024)

Experiments:
[1] = test system: FADD−/− Jurkat cells; test: Necroptosis inhibition assay, TNF-α-induced necroptosis (CellTiter-Glo 2.0); assay type: cell-based, human; settings: TNF-α 15 ng/mL; for Necroptosis inhibition assay (Rescue %) 1 μM: compound 1 μM; for Necroptosis inhibition assay (Rescue %) 10 μM: compound 10 μM
Procedure, shortened: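 Necroptosis induced by 15 ng/mL TNF-α (final) for 20–24 h at 37 °C, after a 30 min room-temperature pretreatment of FADD-deficient Jurkat cells with 0.1, 1 or 10 μM compound. ATP-based luminescence gave viability, from which inhibition rate and cytotoxicity were derived.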

[2] = target: T1, MLKL (Homo sapiens, UniProt Q8NB16); test: MLKL degradation assay in HepG2 cell line (western blot); assay type: cell-based; parameters: endogenous in cells; host or cells: HepG2 or HaCaT; settings: cell line not given; for Degradation assay (Degradation %) 1 μM: compound 1 μM; for Degradation assay (Degradation %) 10 μM: compound 10 μM
T1 sequence (Q8NB16 1-471): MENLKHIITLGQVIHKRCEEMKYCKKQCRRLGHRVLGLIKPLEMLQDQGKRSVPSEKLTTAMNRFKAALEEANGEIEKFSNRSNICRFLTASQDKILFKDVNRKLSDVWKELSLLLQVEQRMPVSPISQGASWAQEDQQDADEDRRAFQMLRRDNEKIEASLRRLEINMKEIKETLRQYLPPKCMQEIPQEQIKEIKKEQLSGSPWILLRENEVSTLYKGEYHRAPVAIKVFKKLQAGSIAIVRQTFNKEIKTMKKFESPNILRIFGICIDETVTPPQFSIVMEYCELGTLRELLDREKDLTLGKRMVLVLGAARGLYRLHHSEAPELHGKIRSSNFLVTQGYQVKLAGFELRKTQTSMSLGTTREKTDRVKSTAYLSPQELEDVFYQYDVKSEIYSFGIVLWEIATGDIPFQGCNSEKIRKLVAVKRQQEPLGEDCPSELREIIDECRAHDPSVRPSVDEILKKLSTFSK
Description: MLKL degradation ability was evaluated in the following method.
1 mL of Human liver cancer cell line (HepG2 cell line) or human skin cell line (HaCaT cell line) was equally distributed into each well at 2.0×10^5 cells/mL in a 12-well cell culture plate. On the next day, the medium was replaced with a medium made so that the final concentration of test compound was 1 or 10 μM (1 mL/well), and incubated in 5% CO2, at 37° C. for 20-24 hours (Thermo scientific, Forma steri-cycle).
For protein preparation after incubation, cells were washed with 1×TBST, and 60 μL of RIPA lysis buffer containing Halt™ Protease and Phosphatase Inhibitor Cocktail was dispensed into each well. After scraping the cells with a scraper, the cells were recovered, and the pallet was homogenized and reacted on ice for 30 minutes. After the cells were centrifuged at 13,000 rpm, 10 minutes, 4° C., the supernatant was transferred to a new E-tube. For protein quantification, after dispensing sample and BCA (0-4 mg/ml) in a 96 well plate, 100 μL of BCA was dispensed and reacted in a 37° C. incubator for 30 minutes. After measuring the absorbance (SpectraMax, M5e, 562 nm), the amount of the sample was adjusted with the same concentration of protein and 4× Laemmli sample buffer, DW, and reacted at 100° C. for 5 minutes.
After assembling the MP TGX Precast Gel in the Mini-PROTEAN Tetra Cell, the same protein (10-15 μg) was added in an 8-10 μL volume per well, 1×Tris-Glycine Buffer was added, and loading was performed. After loading was completed, transfer was performed using Pierce G2 Fast Blotter and Pierce 1-Step Transfer Buffer. After completion of the transfer, 10 ml of SuperBlock™ Blocking Buffer was dispensed and reacted at room temperature for 10 minutes. 5% BSA containing the primary antibody was dispensed and reacted over night at 4° C. The next day, washing was performed three times with 1×TBST at room temperature for 10 minutes. 5% BSA containing the secondary antibody was dispensed and reacted at room temperature for 1 hour. Washing was performed three times with 1×TBST at room temperature for 10 minutes. The amount of protein expression was measured using chemiluminescence (LuminoGraph, ATTO).

[3] = target: T1, MLKL; test: Measurement of binding affinity with MLKL receptor (competitive binding assay, Kd); parameters: made in house; host or cells: HEK 293 cell line (T7 phage in E. coli BL21-derived host is also described)
Procedure, shortened: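 HEK 293-expressed, DNA-tagged MLKL; ligand beads blocked with biotin and SeaBlock/1% BSA/0.05% Tween 20/1 mM DTT buffer. Cpd from 111× DMSO stock, 0.9% DMSO final. Eluted kinase by qPCR → Kd.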

Row | Compound | Degradation assay (Degradation %) 1 μM [2] [%] | Degradation assay (Degradation %) 10 μM [2] [%] | Kd [3] [nM] | Necroptosis inhibition assay (Rescue %) 1 μM [1] [%] | Necroptosis inhibition assay (Rescue %) 10 μM [1] [%] | Necroptosis inhibition assay (Rescue %) 1 μM ([1]; FADD−/− Jurkat cells) [%] | Necroptosis inhibition assay (Rescue %) 10 μM ([1]; FADD−/− Jurkat cells) [%]
1 | Nc1ncc(-c2cnn(C3CCN(CCOCCNC(=O)C4CN(c5cccc6c5C(=O)N(C5CCC(=O)NC5=O)C6=O)C4)CC3)c2)nc1C(=O)O[C@@H](C(=O)Nc1ccc(F)cc1)c1ccccc1 (stereo partly drawn) [TDH-126, (R)-2-((4-fluorophenyl)amino)-2-oxo-1-phenylethyl 3-amino-6-(1-(1-(2-(2-(1-(2-(2,6-dioxopiperidin-3-yl)-1,3-dioxoisoindolin-4-yl)azetidine-3-carboxamido)ethoxy)ethyl)piperidin-4-yl)-1H-pyrazol-4-yl)pyrazine-2-carboxylate] | 31.29 | 81.59 | 9.2 | 19.35 | 58.35 | – | –
2 | Nc1ncc(-c2cnn(C3CCN(CC4CCN(c5cccc6c5C(=O)N(C5CCC(=O)NC5=O)C6=O)CC4)CC3)c2)nc1C(=O)O[C@@H](C(=O)Nc1ccc(F)cc1)c1ccccc1 (stereo partly drawn) [TDH-149, (R)-2-((4-fluorophenyl)amino)-2-oxo-1-phenylethyl 3-amino-6-(1-(1-((1-(2-(2,6-dioxopiperidin-3-yl)-1,3-dioxoisoindolin-4-yl)piperidin-4-yl)methyl)piperidin-4-yl)-1H-pyrazol-4-yl)pyrazine-2-carboxylate] | 48.51 | 77.36 | 40 | 82.1 | 55.19 | – | –
3 | Nc1ncc(-c2cnn(C3CCN(CC4CCN(C(=O)CNc5ccc6c(c5)C(=O)N(C5CCC(=O)NC5=O)C6=O)CC4)CC3)c2)nc1C(=O)N[C@@H](C(=O)Nc1ccc(F)cc1)c1ccccc1 (stereo partly drawn) [TDH-207, 3-amino-6-(1-(1-((1-((2-(2,6-dioxopiperidin-3-yl)-1,3-dioxoisoindolin-5-yl)glycyl)piperidin-4-yl)methyl)piperidin-4-yl)-1H-pyrazol-4-yl)-N-((R)-2-((4-fluorophenyl)amino)-2-oxo-1-phenylethyl)pyrazine-2-carboxamide] | 17.98 | 24.18 | 210 | 28.69 | 32.45 | – | –
4 | Nc1ncc(-c2cnn(C3CCN(CCOC4CCN(c5ccc6c(c5)C(=O)N(C5CCC(=O)NC5=O)C6=O)CC4)CC3)c2)nc1C(=O)OC(C(=O)Nc1ccc(F)cc1)c1ccccc1 (stereo not drawn) [TDH-254, 2-((4-fluorophenyl)amino)-2-oxo-1-phenylethyl 3-amino-6-(1-(1-(2-((1-(2-(2,6-dioxopiperidin-3-yl)-1,3-dioxoisoindolin-5-yl)piperidin-4-yl)oxy)ethyl)piperidin-4-yl)-1H-pyrazol-4-yl)pyrazine-2-carboxylate] | 19.16 | 25.97 | 8 | 24.05 | 15.37 | – | –
5 | Nc1ncc(-c2cnn(C3CCN(CC4CCN(C(=O)C5CN(c6ccc7nnn(C8CCC(=O)NC8=O)c(=O)c7c6)C5)CC4)CC3)c2)nc1C(=O)O[C@@H](C(=O)Nc1ccc(F)cc1)c1ccccc1 (stereo partly drawn) [TDH-170, (R)-2-((4-fluorophenyl)amino)-2-oxo-1-phenylethyl 3-amino-6-(1-(1-((1-(1-(3-(2,6-dioxopiperidin-3-yl)-4-oxo-3,4-dihydrobenzo[d][1,2,3]triazin-6-yl)azetidine-3-carbonyl)piperidin-4-yl)methyl)piperidin-4-yl)-1H-pyrazol-4-yl)pyrazine-2-carboxylate] | 60.57 | 58.27 | 4.6 | 44.08 | 23.26 | – | –

These reach a lower Kd [3]. Values come first.

Row | Degradation assay (Degradation %) 1 μM [2] [%] | Degradation assay (Degradation %) 10 μM [2] [%] | Kd [3] [nM] | Compound | Necroptosis inhibition assay (Rescue %) 1 μM [1] [%] | Necroptosis inhibition assay (Rescue %) 10 μM [1] [%] | Necroptosis inhibition assay (Rescue %) 1 μM ([1]; FADD−/− Jurkat cells) [%] | Necroptosis inhibition assay (Rescue %) 10 μM ([1]; FADD−/− Jurkat cells) [%]
6 | 40.52 | 53.39 | 1.5 | Nc1ncc(-c2cnn(C3CCN(C(=O)C4CCN(C(=O)COc5cccc6c5C(=O)N(C5CCC(=O)NC5=O)C6=O)CC4)CC3)c2)nc1C(=O)OC(C(=O)Nc1ccc(F)cc1)c1ccccc1 (stereo not drawn) [TDH-277, 2-((4-fluorophenyl)amino)-2-oxo-1-phenylethyl 3-amino-6-(1-(1-(1-(2-((2-(2,6-dioxopiperidin-3-yl)-1,3-dioxoisoindolin-4-yl)oxy)acetyl)piperidine-4-carbonyl)piperidin-4-yl)-1H-pyrazol-4-yl)pyrazine-2-carboxylate] | 43.59 | 13.88 | – | –
7 | 84.21 | 91.57 | 0.31 | Nc1ncc(-c2cnn(C3CCN(C4CC5(CCN(CC6CCN(C(=O)c7ccc8c(N9CCC(=O)NC9=O)coc8c7)CC6)CC5)C4)CC3)c2)nc1C(=O)O[C@@H](C(=O)Nc1ccc(F)cc1)c1ccccc1 [TDH-553, (R)-2-((4-fluorophenyl)amino)-2-oxo-1-phenylethyl 3-amino-6-(1-(1-(7-((1-(3-(2,4-dioxotetrahydropyrimidin-1(2H)-yl)benzofuran-6-carbonyl)piperidin-4-yl)methyl)-7-azaspiro[3.5]nonan-2-yl)piperidin-4-yl)-1H-pyrazol-4-yl)pyrazine-2-carboxylate] | – | – | 58.63 | −20.56
8 | 91.19 | 88.98 | 1.2 | Nc1ncc(-c2cnn(C3CCN(CCCC4CCN(C(=O)COc5ccc6c(c5)C(=O)N(C5CCC(=O)NC5=O)C6=O)CC4)CC3)c2)nc1C(=O)O[C@@H](C(=O)Nc1ccc(F)cc1)c1ccccc1 (stereo partly drawn) [TDH-482, (R)-2-((4-fluorophenyl)amino)-2-oxo-1-phenylethyl 3-amino-6-(1-(1-(3-(1-(2-((2-(2,6-dioxopiperidin-3-yl)-1,3-dioxoisoindolin-5-yl)oxy)acetyl)piperidin-4-yl)propyl)piperidin-4-yl)-1H-pyrazol-4-yl)pyrazine-2-carboxylate] | – | – | 78.94 | 42.16
9 | 73.88 | 38.71 | 1.4 | Nc1ncc(-c2cnn(C3CCN(CCCN4CCN(C(=O)C5CN(C6=CC(=O)N(C7CCC(=O)NC7=O)C6=O)C5)CC4)CC3)c2)nc1C(=O)O[C@@H](C(=O)Nc1ccc(F)cc1)c1ccccc1 (stereo partly drawn) [TDH-532, (R)-2-((4-fluorophenyl)amino)-2-oxo-1-phenylethyl 3-amino-6-(1-(1-(3-(4-(1-(1-(2,6-dioxopiperidin-3-yl)-2,5-dioxo-2,5-dihydro-1H-pyrrol-3-yl)azetidine-3-carbonyl)piperazin-1-yl)propyl)piperidin-4-yl)-1H-pyrazol-4-yl)pyrazine-2-carboxylate] | – | – | 21.37 | 24.82
